Measured values from patent publication US20150315241A1, “Antibiotic Peptides” (priority 2007, published 2015).
Values after ≈ are worked out from the molar mass of the structure shown. Where a SMILES comes first, the peptide text is derived from it. Where no end group is shown, it is not given here. [ ]: non-standard residue; d: D form. The star is where a group is joined. Orn(α-tetramethylguanidino) = CN(C)C(=N[C@@H](CCCN)C(=O)*)N(C)C; Orn = NCCC[C@H](N)C(=O)O

Tests used:
[1] = In vivo distribution of fluorescent-labelled peptide (imaging); set-up: species or system female Balb/c mice; details: mice, 40 μg i.p., 60-65 min
Description: The in vivo distribution was measured in mice using fluorescent-labelled peptides derivatives.
Near-infrared absorbing fluorescent dye Dy675 (Dyomics GmbH, Jena, Germany) was activated with DIC and coupled to the N-terminus of the peptide derivatives after completion of the solid phase peptide synthesis (see example 1). Afterwards the peptides were cleaved with TFA and purified by RP-HPLC (see example 1).
Forty μg of the labelled peptide derivatives were injected subcutaneously (sc) or intra-peritional (ip) into shaved and isoflurane anesthetized female Balb/c mice. The animals were placed into the fluorescence microscope chamber under continuous isoflurane exposure. Fluorescence exposure pictures were taken with an IVIS microscope set to 695 nm emission wavelength at every minute in the first 10 min after peptide addition and every 5 min afterwards until 65 min.

Mycobacterium vaccae = format: cell-based; details: 20 h
In short: (§1)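 Bacteria grown overnight in NB at 37° C. were adjusted to 5×10^6 CFU/mL in 1% TSB and mixed 1:1 with a two-fold peptide series (final 125 μg/mL–60 ng/mL). After 20 hrs at 37° C., A595 was read; triplicates.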

B. subtilis 347 = format: cell-based, Bactillus subtillis; details: 347, 20 h
In short: as §1

E. coli D31 = format: cell-based, Escherichia coli; details: D31, 20 h
In short: (§2)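 Growth is measured at 595 nm after the bacteria, set to 5×10^6 CFU/mL in 1% TSB, sit with two-fold dilutions of peptide for 20 hrs at 37° C. Final peptide spans 125 μg/mL to 60 ng/mL.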

E. coli BL 21 AI = test: Growth inhibition assay (MIC); format: cell-based, Escherichia coli; details: 1% TSB, 37° C., 20 hrs
In short: as §1

E. coli DC 2 = test: Growth inhibition assay (MIC); format: cell-based, Escherichia coli; details: 1% TSB, 37° C., 20 hrs
In short: as §1

[2] = system: K. Pneumonia K6, ATCC 700603; test: Growth inhibition assay (MIC); format: cell-based, Klebsiella pneumoniae; details: multidrug resistant strain; 1% TSB, 37° C., 20 hrs
In short: as §2

K. Pneumonia 123132 = test: Growth inhibition assay (MIC); format: cell-based, Klebsiella pneumoniae; details: multidrug resistant strain; 1% TSB, 37° C., 20 hrs
In short: as §2

S. typhi S5 = format: cell-based, Salmonella typhi; details: S5, 20 h
In short: as §2

E. coli 45849 = test: Growth inhibition assay (MIC); format: cell-based, Escherichia coli; details: multidrug resistant strain; 1% TSB, 37° C., 20 hrs
In short: as §2

M. luteus ATCC 10240 = format: cell-based, Micrococcus luteus; details: ATCC 10240, 20 h
In short: as §1

[3] = system: S. enterica subsp. Enterica serovar. typhi G10215 ATCC 700408; format: cell-based, Salmonella enterica; details: ATCC 700408, 20 h
In short: as §2

E. coli 10233 = format: cell-based, Escherichia coli; details: 10233, 20 h
In short: as §1

E. coli 1103 = format: cell-based, Escherichia coli; details: 1103, 20 h
In short: as §1

K. pneumonia 681 = format: cell-based, Klebsiella pneumoniae; details: 20 h
In short: as §1

[4] = system: R. radiobatter ATCC 15955; test: Growth inhibition assay (MIC); format: cell-based, Rhizobium radiobacter; details: multidrug resistant strain; 1% TSB, 37° C., 20 hrs
In short: as §2

in vitro = in vitro ADME, mouse; details: 25% aqueous mouse serum, 37° C.; read-out: Half-life time
In short: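 Peptide or peptidomimetic (0.5 mg/mL aqueous stock) incubated in 25% pooled mouse serum at 37 °C, sampled at 0–6 h, in duplicate. Proteins precipitated with 15% TCA; supernatants neutralized and analyzed by RP-HPLC with 0.1% TFA. Degradation products identified by MALDI-TOF/TOF-MS.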

E. coli BL21 AI = system: E. coli BL21 AI
Description: The induction of resistance strains was determined according to the macro dilution method under NCCLS-conditions (National Committee for Clinical Laboratory Standards—now Clinical and Laboratory Standards Institute Wayne, Pa., USA, NCCLS-Guideline, M7-A5, Vol. 20, Nr. 2; 2000).
Firstly, minimal inhibition concentrations (MIC) were determined for the peptides to be examined as described in example 3.2. To determine induction of resistance continued dilutions of the peptide with concentrations ranging from 3 fold to 4 fold above to below the MIC were chosen. The test was performed in sterile 96-well microtiter plates with round bottoms (Polystyrene, U-bottom, Greiner Bio-One GmbH, Germany) and 200 μL final volume per well. The freeze-dried peptide or peptide derivatives were dissolved in water and diluted in respect to the MIC in 1% TSB (tryptic soy broth) to obtain a volume of 100 μL. […] The dilutions within the series were twofold.
The bacteria, E. coli BL21 AI, were grown overnight at 37° C. in nutrient broth (NB, Carl Roth GmbH+Co. KG, Karlsruhe, Germany) and diluted to 5×10^6 colony forming units (CFU)/mL in 1% TSB. To start the assay 100 μL of the bacteria dilution was added per well of the microtiter plate loaded with peptide. After incubating the plates for 24 h at 37° C., the absorption was determined at 595 nm using a TECAN microtiter plate reader (Tecan, Germany).
MIC values were calculated as described in example 3.2. The test was repeated using new dilution series with peptide concentrations adapted to the new determined MIC values and using the bacteria culture that grew despite the presence of the inhibitory peptide. This bacteria culture (1st passage) was diluted to 5×10^6 CFU/mL in 1% TSB. […] The test was repeated again with using new dilution series with peptide concentrations adapted to the new determined MIC values and using the bacteria culture that grew despite the presence of the inhibitory peptide (2nd passage). The same procedure was applied for about 8 further passages.
As a control a untreated E. coli BL21 AI culture was chosen and passaged without inhibitory peptides. All peptides and peptide derivatives were measured in triplicates. The number of passages was chosen dependent on the rapidity of induction of resistance and commonly was 10 passages over 10 continuous days.

human erythrocytes = test: Hemolytic assay; format: cell-based; details: 1 h 37° C., relative to 0.1% Triton X-100, peptide concentration 600 μg/mL
Description: To determine whether the peptides and peptide derivatives according to the invention were toxic to mammalian cells, several peptides and peptidomimetics from Example 1 above, a positive control, and a negative control were examined for hemolytic activity. The hemolytic activity was assayed with human erythrocytes. A human erythrocyte concentrate was provided in sodium chloride […]-glucose-mannitol buffer from the Leipzig University Hospital (Leipzig, Germany). The erythrocytes were centrifuged at 1000 G and washed three times with 10 volumes of cold phosphate-buffered saline (PBS, pH 7.4). The erythrocytes were diluted to a final concentration of 1% in PBS. One hundred microliters of this human erythrocyte suspension in PBS was added to each well of a V-shaped 96-well polypropylene microtiter plate (Greiner Bio-One GmbH). […] The microtiter plate was incubated at 37° C. for 1 h and subsequently centrifuged for 10 min at 1000 G. One hundred microliters of the supernatant was transferred to a 96-well flat-bottomed polystyrene microtiter plate (Greiner Bio-One GmbH) and the absorption at 405 nm recorded in a micro plate spectrophotometer (Tecan) to evaluate the heme release. […] The hemolysis percentage was calculated by the following equation[44]: ([…])×100% with E=Extinction at 405 nm All hemolytic assays were performed in duplicates. […]

[5] = cited from earlier work

Compound: 160 (Dy675-[Orn]NNRPVYIPRPRPPHPRL-NH2) [compound 160]
- in vivo biodistribution (fluorescence imaging) [1]: enriched in brain, liver, and both kidneys

Compound: CC[C@H](C)[C@H](NC(=O)[C@H](Cc1ccc(O)cc1)NC(=O)[C@@H](NC(=O)[C@@H]1CCCN1C(=O)[C@H](CCCNC(=N)N)NC(=O)[C@H](CC(N)=O)NC(=O)[C@H](CC(N)=O)NC(=O)[C@H](CCCN)NC(C)=O)C(C)C)C(=O)N1CCC[C@H]1C(=O)N[C@@H](CCCNC(=N)N)C(=O)N1CCC[C@H]1C(=O)N[C@@H](CCCNC(=N)N)C(=O)N1CCC[C@H]1C(=O)N1CCC[C@H]1C(=O)N[C@@H](Cc1c[nH]cn1)C(=O)N1CCC[C@H]1C(=O)N[C@@H](CCCNC(=N)N)C(=O)N[C@@H](CC(C)C)C(N)=O [compound 39] (Ac-[Orn]NNRPVYIPRPRPPHPRL-NH2)
- MIC Mycobacterium vaccae (Mycobacterium vaccae): 125 µg/mL (≈ 55.9 µM)
- MIC B. subtilis 347 (B. subtilis 347): 125 µg/mL (≈ 55.9 µM)
- MIC E. coli D31 (E. coli D31): 4 µg/mL (≈ 1.79 µM)
- MIC E. coli BL 21 AI (E. coli BL 21 AI): 1.95 µg/mL (≈ 0.873 µM)
- MIC E. coli DC 2 (E. coli DC 2): 0.98 µg/mL (≈ 0.439 µM)
- MIC K. Pneumonia K6, ATCC 700603 [2]: 16 µg/mL (≈ 7.16 µM)
- MIC K. Pneumonia 123132 (K. Pneumonia 123132): 4 µg/mL (≈ 1.79 µM)
- MIC S. typhi S5 (S. typhi S5): <0.5 µg/mL
- MIC E. coli 45849 (E. coli 45849): 1 µg/mL (≈ 0.447 µM)
- MIC M. luteus ATCC 10240 (M. luteus ATCC 10240): 0.98 µg/mL (≈ 0.439 µM)
- MIC S. enterica subsp. Enterica serovar. typhi G10215 ATCC 700408 [3]: 4 µg/mL (≈ 1.79 µM)
- MIC E. coli 10233 (E. coli 10233): 1.95 µg/mL (≈ 0.873 µM)
- MIC E. coli 1103 (E. coli 1103): 3.91 µg/mL (≈ 1.75 µM)
- MIC K. pneumonia 681 (K. pneumonia 681): 3.9 µg/mL (≈ 1.75 µM)
- MIC R. radiobatter ATCC 15955 [4]: 0.33 µg/mL (≈ 0.148 µM)

Compound: CC[C@H](C)[C@H](NC(=O)[C@H](Cc1ccc(O)cc1)NC(=O)[C@@H](NC(=O)[C@@H]1CCCN1C(=O)[C@H](CCCNC(=N)N)NC(=O)[C@H](CC(N)=O)NC(=O)[C@H](CC(N)=O)NC(=O)[C@H](CCCN)N=C(N(C)C)N(C)C)C(C)C)C(=O)N1CCC[C@H]1C(=O)N[C@@H](CCCNC(=N)N)C(=O)N1CCC[C@H]1C(=O)N[C@@H](CCCNC(=N)N)C(=O)N1CCC[C@H]1C(=O)N1CCC[C@H]1C(=O)N[C@@H](Cc1c[nH]cn1)C(=O)N1CCC[C@H]1C(=O)N[C@@H](CCCNC(=N)N)C(=O)N[C@@H](CC(C)C)C(N)=O [compound 88] ({Orn(α-tetramethylguanidino)}-NNRPVYIPRPRPPHPRL-NH2; N-terminus and C-terminus assumed)
- MIC B. subtilis 347 (B. subtilis 347): 62.5 µg/mL (≈ 27.3 µM)
- MIC E. coli D31 (E. coli D31): 0.5 µg/mL (≈ 0.218 µM)
- half-life (in vitro): 15 min
- induction of resistance (E. coli BL21 AI; 10 passages): no induction of resistance was observed at all
- MIC S. typhi S5 (S. typhi S5): 0.125 µg/mL (≈ 0.0546 µM)
- MIC M. luteus ATCC 10240 (M. luteus ATCC 10240): 1.95 µg/mL (≈ 0.851 µM)
- MIC S. enterica subsp. Enterica serovar. typhi G10215 ATCC 700408 [3]: 0.125 µg/mL (≈ 0.0546 µM)
- MIC E. coli 10233 (E. coli 10233): 1.95 µg/mL (≈ 0.851 µM)
- MIC K. pneumonia 681 (K. pneumonia 681): 7.81 µg/mL (≈ 3.41 µM)

Compound: CC[C@H](C)[C@H](NC(=O)[C@H](Cc1ccc(O)cc1)NC(=O)[C@@H](NC(=O)[C@@H]1CCCN1C(=O)[C@H](CCCNC(=N)N)NC(=O)[C@H](CC(N)=O)NC(=O)[C@H](CC(N)=O)NC(=O)[C@H](CCCN)N=C(N(C)C)N(C)C)C(C)C)C(=O)N1CCC[C@H]1C(=O)N[C@@H](CCCNC(=N)N)C(=O)N1CCC[C@H]1C(=O)N[C@@H](CCCNC(=N)N)C(=O)N1CCC[C@H]1C(=O)N1CCC[C@H]1C(=O)N[C@@H](Cc1c[nH]cn1)C(=O)N1CCC[C@H]1C(=O)N[C@@H](CCCNC(=N)N)C(=O)N[C@@H](CC(C)C)C(=O)O [compound 137] ({Orn(α-tetramethylguanidino)}-NNRPVYIPRPRPPHPRL-OH; N-terminus and C-terminus assumed)
- MIC B. subtilis 347 (B. subtilis 347): 64 µg/mL (≈ 27.9 µM)
- MIC E. coli D31 (E. coli D31): <1 µg/mL
- induction of resistance (E. coli BL21 AI; 10 passages): no induction of resistance was observed at all
- MIC S. typhi S5 (S. typhi S5): <1 µg/mL
- MIC M. luteus ATCC 10240 (M. luteus ATCC 10240): 8 µg/mL (≈ 3.49 µM)
- MIC S. enterica subsp. Enterica serovar. typhi G10215 ATCC 700408 [3]: <1 µg/mL
- MIC E. coli 1103 (E. coli 1103): 8 µg/mL (≈ 3.49 µM)
- MIC K. pneumonia 681 (K. pneumonia 681): 2 µg/mL (≈ 0.873 µM)

Compound: (p-tert-Octylphenoxy)polyethoxyethanol [Triton X-100 ®]
- Haemolysis rate (human erythrocytes): 100%

Compound: GNNRPVYIPQPRPPHPRL [apidaecin]
- degradation in mammalian serum [5]: completely degradaded within one hour

Compound: H-GNNRPVYIPQPRPPHPRL-OH [SEQ ID No. 2, GNNRPVYIPQPRPPHPRL-OH, reference compound]
- passage after which first resistance strains were obtained (E. coli BL21 AI; 10 passages): 2nd
- MIC-value in the 10th passage (E. coli BL21 AI; 10th passage): 128 µg/mL
